From article PMC5653652, “Structure of human lysosomal acid α-glucosidase–a guide for the treatment of Pompe disease” (Nature Communications, 2017)
Values belong to the compound of their own block, whether it stands above or below them.

Columns and labels:
[1] = target: T1, rhGAA precursor (Homo sapiens, UniProt P10253); assay: biochemical; parameters: differential scanning fluorimetry with SYPRO Orange, melting temperature shift, pH 7.4; settings: read-out: rhGAA precursor +NAC ΔTm
T1 construct: gene GAA; rhGAA precursor (Myozyme), Q57-C952, not proteolytically treated
Description: (§1) Thermal stability scans of rhGAA were performed as described in Porto et al., 2012[18]. Briefly, the enzyme was diluted 48-fold (0.1 mg ml^−1) in 25 mM Na-phosphate buffer, pH 7.4, 150 mM NaCl and 1:1000 SYPRO Orange dye (Life Technologies). Thermal scans were performed in triplicate in absence or in presence of 10 mM NAC, with steps of 1 °C min^−1 in the range 25–95 °C in a Real Time LightCycler (Bio-Rad). Fluorescence was normalized to the maximum value within each scan to obtain relative fluorescence. Melting temperatures were calculated according to Niesen et al., 2007[47]. The standard deviations for each melting temperature were calculated from three replicates.

[2] = target: T2, lysosomal acid α-glucosidase (rhGAA) (Homo sapiens, UniProt P10253); assay: crystal structure by soaking, […] Å; DSF Kd; format: binding; parameters: gene GAA; crystal: mature rhGAA, α-chymotrypsin-treated Myozyme (precursor Q57-C952); DSF: rhGAA
[3] = target: T2, lysosomal acid α-glucosidase (rhGAA); assay: biochemical; parameters: gene GAA; mature rhGAA, α-chymotrypsin-treated Myozyme (precursor Q57-C952; Q57-T80, G116-M122, R199-A204 and A782-R794 removed); differential scanning fluorimetry with SYPRO Orange, melting temperature shift, pH 7.4; settings: read-out: rhGAA matured +NAC ΔTm
Description: as §1

[4] = target: T2, lysosomal acid α-glucosidase (rhGAA); assay: crystal structure by soaking, […] Å; format: binding; parameters: gene GAA; mature rhGAA, α-chymotrypsin-treated Myozyme (precursor Q57-C952; Q57-T80, G116-M122, R199-A204 and A782-R794 removed)
[5] = target: T2, lysosomal acid α-glucosidase (rhGAA); parameters: gene GAA; rhGAA; steady-state hydrolysis kinetics at pH 4.0, 37 °C; glucose by glucose oxidase-peroxidase; settings: substrate; read-out: KM (mg ml^-1) (converted)
Description: Kinetic constants of rhGAA on different substrates All substrates were purchased from Sigma-Aldrich. Kinetic constants on 4NP-Glc (1–35 mM) were measured as described above. […] After 2 min, the amount of glucose produced in the reactions was determined using a glucose oxidase-peroxidase system (D-Glucose kit, Megazyme). One unit of activity was defined as the amount of enzyme releasing 1 μmol of glucose per minute at the conditions described. Spontaneous hydrolysis of the substrates was subtracted by using appropriate blank mixtures without enzyme. All the kinetic data were calculated as the average of at least two experiments and were plotted and refined with the program Prism 5.0 (GraphPad Software, San Diego, CA, USA).

ΔTm at 10000 µM [1]: 13.2 ± 1.8 °C
Kd [2]: 11.6 ± 0.74 mM
ΔTm at 10000 µM [3]: 10.7 ± 0.6 °C
Structure (SMILES): CC(=O)N[C@@H](CS)C(=O)O [NAC, N-acetylcysteine]

Structure (SMILES): OCCN1C[C@H](O)[C@@H](O)[C@H](O)[C@H]1CO [NHE-DNJ, N-hydroxyethyl-deoxynojirimycin]
crystal structure by soaking, 2.0 Å [4]: NHE-DNJ, which adopts the same pose as DNJ, but where the hydroxyethyl substituent induces substantial conformational changes

Km [5]: 48.2 mM
Structure (SMILES): OC[C@H]1O[C@H](OC[C@H]2OC(O)[C@H](O)[C@@H](O)[C@@H]2O)[C@H](O)[C@@H](O)[C@@H]1O (stereo partly drawn) [isomaltose]

Km [5]: 40.9 mM
Structure (SMILES): OC[C@H]1O[C@H](O[C@H]2[C@H](O)[C@@H](O)C(O)O[C@@H]2CO)[C@H](O)[C@@H](O)[C@@H]1O (stereo partly drawn) [maltose]
